Measurements as given in patent US20100035943A1, “Oxa-and thiadiazoles and their use as metalloproteinase inhibitors” (VERNALIS (OXFORD) LTD, priority 2002, published 2010).

How the values were obtained:
92 kDa gelatinase (MMP9) = 92 kDa gelatinase (MMP9) (Homo sapiens, UniProt P14780); test: MMP9 enzyme inhibition assay (fluorogenic peptide substrate McaPLGLDpaAR); type: biochemical; conditions: recombinant human 92 kDa gelatinase, 37° C., 2 hours
Experimental: Compounds were tested for inhibitory activity against 92 kDa gelatinase (MMP9) in an assay using a coumarin-labelled peptide substrate, (7-methoxycoumarin-4-yl)acetyl-Pro-Leu-Gly-Leu-(3-[2,4-dinitrophenyl]-L-2,3-diaminopropionyl)-Ala-Arg-NH2 (McaPLGLDpaAR) (Knight et al, FEBS Lett. 1992; 263-266).
Stock solutions were made up as follows: • Assay Buffer: 100 mM Tris-HCl pH 7.6 containing 100 mM NaCl, 10 mM CaCl2, and 0.05% Brij 35 • Substrate: 0.4 mM McaPLGLDpaAR (from Bachem) (0.437 mg/ml) stock solution in 100% DMSO (stored at −20° C.). Dilute to 8 μM in assay buffer. • Enzyme: Recombinant human 92 kDa gelatinase (MMP-9; APMA (4-aminophenyl • mercuric acetate)—activated if necessary) appropriately diluted in assay buffer.
Test Compounds were prepared initially as 10 mM compound solution in 100% DMSO, diluted to 1 mM in 100% DMSO, then serially diluted 3-fold in 100% DMSO across columns 1-10 of a 96-well microtitre plate Assay concentration range, 100 μM (column 1) to 5.1 nM (column 10)
The assay was performed in a total volume of 100 μl per well in 96-well microtitre plates. Activated enzyme (20 μl) was added to the wells followed by 20 μl of assay buffer. Appropriate concentrations of test compounds dissolved in 10 μl of DMSO were then added followed by 50 μl of McaPLGLDpaAR (8 μM, prepared by dilution of DMSO stock in assay buffer). For each assay ten concentrations of test compound were examined in duplicate. Control wells lack either enzyme or test compound. The reactions were incubated at 37° C. for 2 hours. The fluorescence at 405 nm was measured immediately with an SLT Fluostar fluorometer (SLT Labinstruments GmbH, Grödig, Austria) using 320 nm excitation, without stopping the reaction.
The effect of the test compound was determined from the dose response curve generated by the 10 duplicate concentrations of inhibitor. The IC50 (the concentration of compound required to give a 50% decrease in enzyme activity) was obtained by fitting data to the equation, Y=a+((b−a)/(1+(c/X)^d)). (Y=inhibition achieved for a particular dose; X=the dose in nM; a=minimum y or zero % inhibition; b=maximum y or 100% inhibition; c=is the IC50; d=is the slope). The result was rounded to one significant figure.

[1] = tested on: CCl4-induced liver fibrosis; test: CCl4-induced liver fibrosis model; type: in vivo, Male Sprague-Dawley rats; conditions: rat, CCl4 i.p.
Excerpt: Carbon tetrachloride (CCl4) induces liver fibrosis when administered intraperitoneally (Bulbena O, Culat J, Bravo M L., Inflammation 1997 October; 21(5):475-88). Compounds of the invention can be evaluated for their ability to prevent the CCl4-induced formation of fibrotic tissue. Male Sprague-Dawley rats, 7 weeks old, weight approx. 300 g from Charles River/Iffa-Crédo, St-Germain/l'Arbresle, France. The study involved the following groups of 8 animals each, as indicated below. Group 1: “Sham” animals received CCl4 vehicle (i.p.) and once daily, the vehicle of test substance (s.c.) Group 2: Positive control group received CCl4 (i.p.), and once daily, the vehicle of the test substance (s.c.) Group 3: Experimental group received CCl4 (i.p.), and once daily, 2 mg/kg s.c. of the compound of Example 13. Group 4: Experimental group received CCl4 (i.p.), and once daily, 10 mg/kg s.c. of the compound of Example 13. Group 5: Experimental group received CCl4 (i.p.) and once daily, 20 mg/kg s.c. of the compound of Example 13. CCl4 (Prolabo) in olive oil was administered every 3 days for three weeks by intraperitoneal injection (0,25 ml CCl4/kg body weight, diluted in oil 1:1 vol:vol for a total volume of 0.5 ml/kg). Animals were weighed daily. If body weight decreased by more than 10% of the initial weight, the animal was excluded from the study. Vehicles and compound were used as follows: • CCl4 was administered in olive oil (prolabo) at a 1:1 dilution; • The compound of Example 13 was suspended in 0.25% Tween-80 and 0.25% carboxymethylcellulose in sterile 0.9% NaCl. The solution was kept at 4° C. throughout the experiment and used each day to prepare the suspensions. The compound of Example 13 was administered daily by subcutaneous (s.c.) injection at a volume of administration of 5 ml/kg. Groups 1 and 2 were dosed s.c. with 5 ml/kg of vehicle. Freshly prepared solutions were used on each day of the experiment. […] Plasma aspartate amino transferase (ASAT) and alanine amino transferase (ALAT) levels were measured in order to assess liver necrosis. […]

[2] = compound s.c. once daily 2, 10, 20 mg/kg for 21 days, compared to vehicle (FIG. 1)

Chain of 92 kDa gelatinase (MMP9) (P14780 107-707 limits assumed): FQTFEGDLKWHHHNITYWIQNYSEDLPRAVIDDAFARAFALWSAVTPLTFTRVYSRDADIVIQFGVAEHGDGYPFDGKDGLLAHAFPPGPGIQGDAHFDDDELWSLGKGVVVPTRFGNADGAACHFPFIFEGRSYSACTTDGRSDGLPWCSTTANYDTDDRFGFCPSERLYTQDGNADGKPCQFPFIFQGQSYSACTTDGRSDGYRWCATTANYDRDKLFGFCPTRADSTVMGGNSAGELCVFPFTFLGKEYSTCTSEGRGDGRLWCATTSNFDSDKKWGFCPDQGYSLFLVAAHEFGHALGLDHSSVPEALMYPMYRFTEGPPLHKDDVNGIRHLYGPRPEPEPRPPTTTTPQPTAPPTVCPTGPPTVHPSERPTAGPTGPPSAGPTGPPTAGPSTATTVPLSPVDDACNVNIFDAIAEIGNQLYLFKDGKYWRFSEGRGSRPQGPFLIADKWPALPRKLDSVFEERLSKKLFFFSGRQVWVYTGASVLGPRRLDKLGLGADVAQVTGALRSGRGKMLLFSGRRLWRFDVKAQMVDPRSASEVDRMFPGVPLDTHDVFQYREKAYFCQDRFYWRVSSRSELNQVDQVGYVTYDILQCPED

`CC(C)C[C@@H](C(=O)N[C@H](c1noc(-c2cccs2)n1)C(C)(C)C)[C@H](O)C(=O)NO` [Example 13, 2S-Hydroxy-3R-[1S-(5-thiophen-2-yl-[1,2,4]oxadiazol-3-yl)-2,2-dimethyl-propylcarbamoyl]-5-methyl Hexanohydroxamic Acid] was tested, and the IC50 (92 kDa gelatinase (MMP9)) was 100 to 1000 nM, the “Plasma alanine amino transferase (ALAT) level” value [1, 2] was “clearly decreases” and the “Plasma aspartate amino transferase (ASAT) level” value [1, 2] was “clearly decreases”. The “Effect on the liver” value ([1]; compound s.c. once daily, conclusion from ASAT and ALAT levels) was “protective effect on the liver”.
